Data reported in patent US20040259942A1, “Modulation of stat activity” (priority 2001, published 2004).

Legend:
BR293 cells = assay: Cell proliferation assay (cell counting); format: cell-based, human; settings: for effect on proliferation over 48 hours: PD 153035 100 nM, PD 168393 2 μM
Protocol: (§1) Equal numbers of BR293 and MDA-MB-468 cells were seeded in MEM containing 10% FCS into 10 cm dishes. […]. For the 48 time points, fresh medium containing the appropriate inhibitor was applied to the cells after 24 hours. Controls were allowed to grow for 48 hours in the absence of inhibitor. Thereafter, all the cells were washed twice with ice cold PBS, harvested and counted under a phase-contrast microscope. Values are expressed as averages+S.D. (n=3).
(§2) Equal numbers of BR293, MCF-10F, MCF-7, MDA-MB-468, HKEK293 and COS1 cells were seeded in the appropriate growth medium into 10 cm dishes. Cells were allowed to grow in the presence of various concentrations of OdDHL or OHHL for 24 or 48 hours. For the 48-hour time points, fresh medium containing the appropriate inhibitor was applied to the cells after 24 hours. Controls were allowed to grow for 48 hours in the absence of inhibitor. Thereafter, all the cells were washed twice with ice cold PBS, harvested and counted under a phase-contrast microscope. Values are expressed as averages ±S.D. (n=3).

MDA-MB-468 cells = assay: Cell proliferation assay (cell counting); format: cell-based, human; settings: for effect on proliferation over 48 hours: PD 153035 100 nM, PD 168393 2 μM
Protocol: as §1, §2

STAT3 [1] = assay: Weak constitutive STAT3 DNA-binding in serum-starved cells (EMSA supershift); format: cell-based, human
ErbB2 = assay: Tyrosine phosphorylation of ErbB2: immunoprecipitation and anti-phosphotyrosine immunoblot; format: cell-based, human; settings: EGF
Protocol: (§3) For immunoprecipitation and immunoblotting experiments, cells were grown to confluence in 10 cm dishes and maintained in full medium or starved in serum-free medium overnight before the application of appropriate stimuli. Lysates were prepared in TBSN buffer (50 mM Tris-HCl pH7.5, 150 mM NaCl, 1 mM EDTA, 1% NP-40) supplemented with protease inhibitors (1 mM Na3 VO4, 10 mM Na4P2O7, 10 mM NaF, 5 mM EGTA, 10 mM Benzamidine, 0.2 mM PMSF and 1 μg/ml each of leupeptin, aprotinin, pepstatin). Lysates were cleared by centrifugation at 16,000×g for 10 minutes and used directly for immunoprecipitations or stored at −20° C. for further use.
(§4) Equal amounts of lysates were incubated with the appropriate antibody for 2 hours at 4° C.
(§5) Immune complexes were then allowed to bind to protein A-Sepharose beads for 1 hour at 4° C. and collected by centrifugation. Immunoprecipitates were washed three times in 100 mM Tris-HC1 pH 7.5, 100 nM NaCl, 1 mM EDTA, 0.1 mM PMSF, 0.5% NP-40. Thereafter, samples were taken up in sodium dodecyl sulphate (SDS) loading buffer and boiled for 5 min.
(§6) Samples were separated by electrophoresis through 6% polyacrylamide-SDS gels. Proteins were then transferred to polyvinylidene difluoride (PVDF) membranes with a semi-dry electroblotting apparatus. […]

ErbB3 = assay: Tyrosine phosphorylation of ErbB3: immunoprecipitation and anti-phosphotyrosine immunoblot; format: cell-based, human
Protocol: as §3, §4, §5, §6

STAT3 [2] = assay: Serum-induced STAT3 tyrosine phosphorylation (immunoblot); format: cell-based, human; settings: BR293 cells; full medium, 2 hour time course; AG490 pre-treatment
Protocol: as §3, §4, §5
Samples were separated by electrophoresis through 6% polyacrylamide-SDS gels. Proteins were then transferred to polyvinylidene difluoride (PVDF) membranes with a semi-dry electroblotting apparatus. The membranes were incubated with appropriate primary antibodies at room temperature for 1 hour or 4° C. overnight according to suppliers' instructions, washed and stained with horseradish peroxidase-coupled secondary antibodies. The membranes were developed with an enhanced chemiluminescence kit (Amersham).
as §3, with “Na3VO4,” for “Na3 VO4,”, “aprotinin and” for “aprotinin,”, “use. AG490 was purchased from Sigma; PD153035 was provided by Glaxo-Smith-Kline and PD168393 was purchased from Calbiochem.” for “use.”
as §5, with “Equal amounts of lysates were incubated with the appropriate antibody for 2 hours at 4° C. Immune” for “Immune”, “in 10” for “in 100”, “mM Tris-HCl” for “mM Tris-HC1”, “100 mM” for “100 nM”

JAK2 = target: T1, JAK2 (Homo sapiens, UniProt O60674); assay: Serum-induced JAK2 tyrosine phosphorylation (immunoblot); format: cell-based; settings: BR293 cells; 2 hour time course; AG490 pre-treatment
T1 construct: endogenous in cells; host or cells: BR293
T1 sequence (O60674 whole entry): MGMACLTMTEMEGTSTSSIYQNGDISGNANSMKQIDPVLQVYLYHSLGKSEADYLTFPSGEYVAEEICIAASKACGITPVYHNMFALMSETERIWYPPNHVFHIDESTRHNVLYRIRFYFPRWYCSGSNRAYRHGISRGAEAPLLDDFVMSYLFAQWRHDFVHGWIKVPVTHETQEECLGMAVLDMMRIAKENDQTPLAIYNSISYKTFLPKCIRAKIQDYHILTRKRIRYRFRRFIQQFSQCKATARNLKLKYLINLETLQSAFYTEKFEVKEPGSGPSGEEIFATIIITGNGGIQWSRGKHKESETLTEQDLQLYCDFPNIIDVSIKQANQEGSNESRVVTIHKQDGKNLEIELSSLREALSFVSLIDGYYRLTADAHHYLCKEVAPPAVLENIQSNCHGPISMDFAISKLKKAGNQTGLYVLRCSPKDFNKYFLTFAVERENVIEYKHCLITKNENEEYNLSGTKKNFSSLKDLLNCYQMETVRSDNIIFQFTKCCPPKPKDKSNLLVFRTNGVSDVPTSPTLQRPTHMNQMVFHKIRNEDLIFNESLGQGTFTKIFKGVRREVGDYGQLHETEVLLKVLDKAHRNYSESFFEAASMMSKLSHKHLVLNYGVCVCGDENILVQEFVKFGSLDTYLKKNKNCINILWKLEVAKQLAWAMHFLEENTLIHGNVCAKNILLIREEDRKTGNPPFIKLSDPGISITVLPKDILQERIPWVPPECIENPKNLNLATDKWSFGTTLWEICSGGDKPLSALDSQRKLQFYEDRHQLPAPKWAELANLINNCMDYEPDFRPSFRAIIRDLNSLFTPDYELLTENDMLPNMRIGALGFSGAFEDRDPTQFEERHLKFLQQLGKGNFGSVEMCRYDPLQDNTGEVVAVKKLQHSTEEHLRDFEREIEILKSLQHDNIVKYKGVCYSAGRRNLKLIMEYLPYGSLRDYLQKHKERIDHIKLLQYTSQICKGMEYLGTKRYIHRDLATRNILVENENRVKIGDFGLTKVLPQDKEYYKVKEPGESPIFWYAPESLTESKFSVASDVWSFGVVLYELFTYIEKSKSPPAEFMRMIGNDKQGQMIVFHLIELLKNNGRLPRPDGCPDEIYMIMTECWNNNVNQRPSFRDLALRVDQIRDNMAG
Protocol: as §3, §4, §5, §6

STAT3 [3] = assay: STAT3 activation by conditioned medium (CM) from serum-stimulated BR293 cells; format: cell-based, human; settings: serum-starved BR293 cells treated with AG490
Protocol: OdDHL blocks the autocrine release of mitogens from BC cells (a) Equal numbers of BR293 cells were cultured in MEM alone, serum-free MEM conditioned by serum-stimulated BR293 cells for 2 hours, or the same supplemented with 5% FCS, as indicated. After 24 hours [^3H]-thymidine was added to the medium. After a further 18 hours, cells were harvested and analysed for incorporation of ^3H. Error bars denote SD (n=4). (b) BR293 cells were serum-starved (lane 1) or starved and stimulated with 10% FCS for 2 hours directly (lane 2) or after pretreatment with α-amanitin (1004/ml) for 2.5 hours (lane 3) or actinomycin D ([…]) for 10 min (lane 4). […] Cell lysates were prepared and analysed by Western blotting as described in the legend to FIG. 1a. […] Lysates were prepared from all the cells and analysed by Western blotting as described in the legend to FIG. 1a.
Serum-starved BR293 cells were stimulated with 10% foetal calf serum (FCS) and, after 2 hours, half the cells were harvested while the other cells were washed thoroughly and incubated for a further 4 hours in serum-free medium. […] Nuclear extracts were made from all the cells and analysed for STAT DNA-binding. […]

MCF-10F cells = settings: previously shown (refs 5, 11); cited from earlier work
BC cell = settings: ref (7); cited from earlier work

In the case of `C=CC(=O)Nc1ccc2ncnc(Nc3cccc(Br)c3)c2c1` [PD 168393], the “effect on proliferation over 48 hours” value (BR293 cells) is reported as “no effect on their proliferation” and the “effect on proliferation over 48 hours” value (MDA-MB-468 cells) is reported as “no effect on their proliferation”.
For `COc1cc2ncnc(Nc3cccc(Br)c3)c2cc1OC` [PD 153035], the “weak, heterogeneous DNA-binding by STAT3 in extracts from serum-starved cells” value (STAT3 [1]; MDA-MB-468 cells, 100 nM) was “had no effect”, the “effect on proliferation over 48 hours” value (BR293 cells) was “no effect on their proliferation” and the “effect on proliferation over 48 hours” value (MDA-MB-468 cells) was “no effect on their proliferation”.
In the case of “EGF: Epidermal Growth Factor, used as stimulus”, the “stimulation of ErbB2 tyrosine phosphorylation” value (ErbB2; BR293 cells) is reported as 3.2 fold, the “stimulation of ErbB2 tyrosine phosphorylation” value (ErbB2; T47D cells) is reported as 5.7 fold and the “induction of ErbB3 tyrosine phosphorylation” value (ErbB3; cell line co-expressing ErbB1, first value printed (cell line not given)) is reported as 6.6 fold. For the same compound, the “induction of ErbB3 tyrosine phosphorylation” value (ErbB3; cell line co-expressing ErbB1, second value printed (cell line not given)) was 6.3 fold.
With `N#C/C(=C/c1ccc(O)c(O)c1)C(=O)NCc1ccccc1` [AG490] the “weak STAT3 DNA-binding” value (STAT3 [1]; BT20 and MDA-MB-468 cells, 100 μM) was “unaffected”, the “serum-stimulated STAT3 tyrosine phosphorylation” value (STAT3 [2]) was “blocked” and the “serum-stimulated tyrosine phosphorylation of JAK2” value (JAK2) was “blocked”. The “STAT3 activation by conditioned medium from BR293 cells” value (STAT3 [3]) was “no inhibition was observed”, the “reduction of cell proliferation” value (BR293 cells; AG490 100 μM, over 48 hours) was greater than 75% and the “reduction of cell proliferation” value (MDA-MB-468 cells; AG490 100 μM, over 48 hours) was greater than 75%. The “sensitivity to JAK inhibitor” value (MCF-10F cells) was “insensitive” and the BC cell proliferation (BC cell) was “inhibits BC cell proliferation”.
